Measured values: patent US20030187064A1, “Use” (priority 2001, published 2003)
Where “and” joins values, the source holds several entries; their conditions need not be identical. Identical values can stand only once.

Assays:
[1] = system: yeasts and moulds as well as catalase-positive bacteria; settings: cited from earlier work
[2] = Preserving effect in shampoo; settings: 2000 ppm; compared with a normally used preservative
B. anthracis = assay type: cell-based, Bacillus anthracis; settings: 24 h at 30° C.
[3] = Preserving effect in skin cream (oil-in-water); settings: 250 or 2000 ppm; compared with methyl paraben
Bacillus anthracis = assay type: cell-based
B. anthracis 3.046 = assay type: cell-based, Bacillus anthracis; settings: 24 h at 30° C.
[4] = cited from earlier work
B. anthracis 204 = assay type: cell-based, Bacillus anthracis; settings: 24 h at 30° C.
[5] = Preserving effect in toothpaste; settings: 2000 ppm; compared with sodium benzoate
[6] = Irritation effect of shampoo on the scalp; settings: added to shampoo, 2000 ppm
[7] = Irritation effect of skin cream on the skin; settings: added to skin cream, 250 or 2000 ppm
caries = assay: Caries inhibition by toothpaste with APP; settings: added to toothpaste, 2000 ppm
[8] = Stability of APP in water; settings: water at 24° C.
[9] = tests disclosed in the literature (Baute et al. 1993); cited from earlier work
[10] = system: Gram-positive bacteria, yeasts, and moulds; settings: cited from earlier work
[11] = system: aerobic, Gram-negative bacteria; settings: cited from earlier work
moulds = settings: pH of 5.5; cited from earlier work
bacteria = settings: cited from earlier work

C/C=C/C=C/C(=O)O [Sorbic Acid]
Effective concentration [1]: 500-3000 ppm

O=C1C[C@@H](CO)OC=C1O [APP, 1,5-Anhydro-4-deoxy-D-glycero-hex-1-en-3-ulose]
Preserving effect in shampoo [2]: as good preservatives as the commonly used preservative
APP level causing significant inhibition (B. anthracis): 2000 ppm
APP level causing total inhibition (B. anthracis): 4000 ppm and >4000 ppm
Preserving effect in skin cream [3]: as good preservatives as the commonly used preservative
Sensitivity in well diffusion test (zones of inhibition) (Bacillus anthracis): sensitive
APP level causing significant inhibition (B. anthracis 3.046): 2000 ppm
APP level causing total inhibition (B. anthracis 3.046): 3000 ppm
Stability ([4]; pH 1.5-5.5): stable
half-life ([4]; pH 11-12.5): 5 h
APP level causing significant inhibition (B. anthracis 204): 4000 ppm and 2000 ppm
APP level causing total inhibition (B. anthracis 204): >4000 ppm and 4000 ppm
Preserving effect in toothpaste [5]: as good preservatives as the commonly used preservative
Irritation effect on the scalp [6]: no irritation effect
Irritation effect on the skin [7]: no irritation effect
Inhibition of caries (caries): inhibited caries
Stability in water ([8]; 2 weeks): stable
Stability in water ([8]; after 2 months): completely disappears
Function as an antibiotic [9]: did not function satisfactorily as an antibiotic

O=C1CO[C@H](CO)[C@@H](O)[C@@H]1O [AF, 1,5-anhydro-D-fructose]
Preserving effect in shampoo [2]: as good preservatives as the commonly used preservative
Preserving effect in skin cream [3]: as good preservatives as the commonly used preservative
Preserving effect in toothpaste [5]: as good preservatives as the commonly used preservative
Irritation effect on the scalp [6]: no irritation effect
Irritation effect on the skin [7]: no irritation effect

O=S=O [Sulphur Dioxide]
Effective concentration [10]: 800-2000 ppm
Effective concentration for inhibition [11]: 250-500 ppm

Propionic Acid and Propionate
Concentration inhibiting moulds (moulds): 125 to 12500 ppm
Concentration necessary for inhibition of bacteria (bacteria): > 16000 ppm
